# Test results taken from PubChem BioAssay AID1996.
# Conditions: buffer; pH 7.4; 200.0 µM
row,SMILES,solubility kinetic [µg/mL]
1,Cc1ccnc2nc(C(=O)NCc3ccccc3)nn12,> 40.1
2,COc1ccc([N+](=O)[O-])cc1NC(=O)CCN1CCOCC1,> 46.4
3,COc1ccccc1CNC(=O)C(C)Oc1ccccc1 (centres undefined),> 42.8
4,O=C(Oc1ccccc1C(=O)N1CCOCC1)c1ccc(F)cc1,45.1
5,O=C1CCCN1C(=O)CSc1ccc2ccccc2n1,41.9
6,CC(=O)c1ccc(NC(=O)c2noc(C)c2[N+](=O)[O-])cc1,18.6
7,CC1CCN(c2ccc(C(F)(F)F)cc2N)CC1,< 0.3
8,CCC(=O)N1CCc2cc(S(=O)(=O)Nc3ccccc3C)ccc21,< 0.4
9,Cc1cc(C)nc(NC(=O)Cc2ccc(Cl)cc2)c1,8.6
10,CCCCC(=O)Nc1ccc(NCc2ccc(C)s2)cc1,16
11,NS(=O)(=O)c1ccc(OC(=O)CNC(=O)OCc2ccccc2)cc1,34.3
12,Cc1ccnc(NC(=O)CNC(=O)c2ccccc2Br)c1,48.5
13,Cc1cccc(NC(=O)N2C[C@H]3C[C@@H](C2)c2cccc(=O)n2C3)c1,> 48.5
14,CN1CCN(c2ncnc(Cl)c2N)CC1,> 34.2
15,CCC1(CC)NC(=O)N(Cc2nc3ccccc3s2)C1=O,> 45.5
16,O=C(Nc1ccc(F)cc1F)c1ccc2c(c1)OCCO2,14
17,CCN(Cc1ccccc1)Cc1nc(CCc2ccccc2)no1,1.4
18,O=C(Cn1cnc([N+](=O)[O-])c1)NCCc1ccccc1,> 41.1
19,CCOc1ccccc1N1CN(C2CCCCC2)CNC1=S,> 47.9
20,Cc1c(NC(=O)C(c2ccccc2)c2ccccc2)cccc1C(=O)O,> 51.8
21,Cc1ccc(S(=O)(=O)n2ccc3c2CCCC3=O)cc1,> 43.4
22,COc1cc2c(cc1OC)CC(C(=O)NCc1ccccc1)NC2 (centres undefined),33.2
23,Nc1cc(=O)[nH]c(SCC(=O)NC2CCCCCCC2)n1,> 46.6
24,CCCCn1c(O)c(C(C)=NCc2ccco2)c(=O)[nH]c1=O,9.1

row,SMILES,solubility kinetic [µg/mL]
1,COc1cc(C)ccc1OCC(=O)OCC(=O)c1[nH]c(C)c(C(C)=O)c1C,13.5
2,CCCn1c(N)c(N(CCOC)C(=O)CSc2c(Cl)cccc2Cl)c(=O)[nH]c1=O,53
3,Cc1ccc(C(=O)NCCNC(=O)COc2ccc(C)c(C)c2)cn1,49.2
4,CCCC(C(=O)Nc1ccc2c(C)cc(=O)oc2c1)c1ccccc1 (centres undefined),2.9
5,NS(=O)(=O)c1ccc(CNC(=O)Cc2ccccc2[N+](=O)[O-])cc1,50.1
6,CCOc1ccc(S(=O)(=O)NCCC(=O)OCC(=O)NC(=O)c2cccn2C)cc1,22.2
7,CCCCN1C(=O)C(=O)N(CC(=O)NC2CCCc3ccccc32)C1=O (centres undefined),50.9
8,Cc1cccc(C(=O)OC2CCCN(C)C2)c1C.Cl (centres undefined),36.9
9,COc1ccc(CCN(C)C(=O)c2cnc(C)cn2)cc1OC,38.1
10,CCN(CC)S(=O)(=O)c1ccc(NC(=O)c2ccc(N3CCCC3=O)cc2)cc1,5
11,O=C(NCc1ccco1)C(=O)NCC(c1ccco1)N1CCOCC1 (centres undefined),47.2
12,COc1ccc(CCNC(=O)/C=C/c2ccco2)cc1OC,> 45.2
13,Cc1ccccc1C(=O)c1cccn1CC(=O)NCc1ccccc1,12.7
14,Cc1ccccc1CC1SC(N)=NC1=O (centres undefined),21.8
15,CC1(C)CC(=O)C(C=Nc2ccc(N)cc2)=C(O)C1,> 38.7
16,O=C(NCc1ccc(F)cc1)Nc1cccc([N+](=O)[O-])c1,1
17,Cc1ccc(C)c(Nc2ccc3nonc3c2[N+](=O)[O-])c1,2
18,N#CC1(N2CCN(C(=O)c3ccccc3)CC2)CCCCC1,35.9
19,Cc1c(-c2cccc(Cl)c2)nc2ccccc2c1C(=O)NC1CC1,> 50.5
20,COc1ccc(-n2ncc3c(=O)n(CC(C)=O)cnc32)cc1,> 44.7
21,CCC(=O)N1CCN(c2ccnc3cc(Cl)ccc23)CC1,40.4
22,O=C1C2C3C=CC(C4CC34)C2C(=O)N1c1cc(Cl)ccn1 (centres undefined),42.6
23,CN/C(=C/[N+](=O)[O-])NCCSCc1ccc(CN(C)C)o1.Cl,52.4
24,CCOC(=O)N1CCN(CC(=O)Nc2ccc(F)c(F)c2)CC1,> 49.1

row,SMILES,solubility kinetic [µg/mL]
1,Fc1cc(Br)ccc1NC(=S)Nc1cccnc1,44.8
2,CCOC(=O)C1(CC2CC2)CCN(C(=O)c2cccnc2C)CC1,> 49.6
3,CN(C)CCC(=O)c1ccc(F)cc1.Cl,> 34.8
4,CC(C#N)OC(=O)c1cccnc1SCC(=O)Nc1ccc2c(c1)OCO2 (centres undefined),20.8
5,O=C(COC(=O)c1cc(=O)[nH]c2ccccc12)Nc1ccc(F)cc1,15.4
6,CC(C)CC(=O)NC(C)C(c1cccs1)N1CCOCC1 (centres undefined),45.4
7,CC1CCN(C2CC(=O)N(c3ccc(Br)cc3Br)C2=O)CC1 (centres undefined),40.4
8,O=C(NCc1ccccc1F)c1ccncc1,29.5
9,O=C(COC(=O)c1ccc(Br)o1)NCc1ccccc1Cl,9
10,Cc1ccsc1C(=O)Nc1ccc(OCc2ccccc2)cc1,< 0.7
11,O=C(Nc1ccc(F)cc1)N1CCCN(c2nccc(C(F)(F)F)n2)CC1,57
12,O=C(Nc1ccc(F)cc1)C1CC(=O)N(Cc2ccco2)C1 (centres undefined),> 45.3
13,O=C(CCc1nc2ccccc2s1)OCC(=O)c1ccc[nH]1,14.2
14,O=C(C[n+]1ccccc1)Nc1ccccc1[N+](=O)[O-].[Cl-],34
15,COc1ccc(NC(=O)CCC(=O)NCc2ccco2)c([N+](=O)[O-])c1,> 52.1
16,COc1ccc(CNCc2ccncc2)cc1OC.Cl,> 44.2
17,Cn1c(N)c(C(=O)CN2CCc3ccccc3C2)c(=O)n(C)c1=O,> 49.3
18,O=C(NCCCN1CCOCC1)C(=O)NCc1ccc(Cl)cc1,> 51
19,CCOC(=O)c1cc(/C(C)=N/OC(=O)c2ccc(Cl)cc2)on1,0.6
20,Cn1c(=O)c2sccc2n(Cc2ccccc2)c1=O,> 40.8
21,Cc1c(Cl)cccc1NS(=O)(=O)c1cccc2nsnc12,> 51
22,COc1ccc(CCNc2c([N+](=O)[O-])ncn2C)cc1OC,45.8
23,O=C(Cc1ccc(Cl)cc1)OCC(=O)c1ccc[nH]1,27.3
24,COc1cccc(NC(=O)COC(=O)c2sccc2C)c1,12.2

row,SMILES,solubility kinetic [µg/mL]
1,O=C(CN1CCN(c2ccccc2F)CC1)c1ccc(O)c(O)c1,47.6
2,CN1CC(C#N)C2(O)c3ccccc3CCC2C1 (centres undefined),> 36.3
3,CCOC(=O)N1CCN(c2nc(-c3ccccc3)c3ccccc3n2)CC1,< 0.2
4,OCCNc1nc2ccccc2nc1NCCO,35.2
5,O=C(Nc1cc(Cl)ncn1)c1ccccc1,34.2
6,Cc1ccc(-c2noc(-c3ccno3)n2)cc1,2.4
7,Cc1cccc(NC(=O)CN2C(=O)NC3(CCCC3)C2=O)n1,> 45.3
8,Cc1onc(-c2ccccc2)c1C(=O)NCc1ccccc1F,6.5
9,Cc1c(C(=O)OCC(=O)NC(=O)NC2CCCCC2)cccc1[N+](=O)[O-],2.3
10,N#CC1(Nc2cccc(Br)c2)C(=O)Nc2ccccc21 (centres undefined),> 49.2
11,O=C1c2ccccc2CN1c1ccccc1,12.4
12,CC(CN1CCCC1)OC(=O)c1ccc(F)cc1.Cl (centres undefined),> 43.2
13,Cc1ccccc1-c1noc(CNC(=O)c2ccco2)n1,> 42.5
14,CC(C)CN(CC(C)C)C(=O)COc1ccccc1C(N)=O,> 46
15,Cc1ccc2cc(COC(=O)c3cccc([N+](=O)[O-])c3)c(=O)[nH]c2c1,2.7
16,CCSC1=N/C(=C\c2ccccc2)C(=O)N1c1ccc(OC)cc1,< 0.4
17,CNC(=O)c1oc(-c2ccccc2)nc1C,> 32.4
18,CC(=O)Nc1ccc(/C=C/c2ccc3c([N+](=O)[O-])cccc3n2)cc1,16.2
19,Cc1ccc(SCC(=O)NC2CCCCCC2)cc1,> 41.6
20,COc1ccccc1CNC(=O)COC(=O)Cc1cccc(F)c1,> 49.7
21,C=CCn1c(O)c(C(C)=Nc2cccc(C(F)(F)F)c2)c(=O)[nH]c1=O,4
22,Cc1ccc(-c2nsc(SCC(=O)NCC3CCCO3)n2)cc1 (centres undefined),> 52.4
23,Cc1ccccc1OCCC(=O)OCC(=O)NC1CC1,> 41.6
24,Cc1ccc(C)c(N2N=C(C(=O)O)CCC2=O)c1,> 36.9

row,SMILES,solubility kinetic [µg/mL]
1,CCOC(=O)c1c(C)[nH]c(C)c1C(=O)COC(=O)C1CC(=O)N(CCc2ccccc2)C1 (centres undefined),> 66.1
2,CC(OC(=O)C1CCCC1)C(=O)Nc1ncc(Cl)cc1Cl (centres undefined),49.1
3,CCOc1ccc(NC(=S)NCc2nc3ccccc3[nH]2)cc1,46.6
4,Cc1cc(NC(=O)Cc2ccc(Br)cc2)no1,1.8
5,O=C(CSc1nnc(-c2ccccn2)o1)Nc1ccccc1,> 46.9
6,Cc1noc(C)c1COc1ccc(C(=O)N2CCN(S(=O)(=O)c3cccc(F)c3)CC2)cc1,25.1
7,O=C(/C=C/c1ccco1)N(Cc1ccccc1)C1CCS(=O)(=O)C1 (centres undefined),47.1
8,Cl.Oc1ccc(CCNc2c3ccccc3nc3ccccc23)cc1O,44.7
9,O=C(Cc1c[nH]c2ccccc12)NCc1ccncc1,> 39.8
10,CN1C(=O)C(=O)/C(=C(/O)c2ccccc2)C1c1ccccc1 (centres undefined),> 44
11,COc1ccc(CNC(=O)C2CCN(C(=O)Cc3ccccc3)CC2)cc1,> 55
12,CN(CC(=O)Nc1ccccc1Cl)C(=O)COC(=O)c1ccc([N+](=O)[O-])s1,> 61.8
13,CCCOc1cccc(C(=O)NCCNC(=O)c2ccccn2)c1,> 49.1
14,Cc1cc(C(=O)OC(C)C(=O)NC2CCCCC2)c(C)o1 (centres undefined),15.7
15,COc1cc(CN2CCNCC2)cc(OC)c1OC.Cl,23.1
16,O=C(Nc1ccc(Br)cc1)c1cccnc1N1CCOCC1,> 54.3
17,N/C(=N\C(=S)Nc1ccccc1)c1ccccc1,> 38.3
18,COc1ccccc1/C=C1/C(=O)ON=C1C,31.3
19,N#CCC(=O)Nc1ccc(C(F)(F)F)cc1N1CCOCC1,38.3
20,Cc1nc2c(Cl)cccc2c2c1CC(CBr)O2 (centres undefined),12.5
21,S=C1NCN(Cc2cccnc2)CN1c1cccc(Cl)c1,> 47.8
22,CCN(CC)C(=O)c1cc(Cl)ccc1NC(=O)c1ccco1,> 48.1
23,O=C(CC(c1ccccc1)c1ccco1)N1CCCCC1 (centres undefined),> 42.5
